The values that follow come from patent US20060057133A1, “Topical pathogenic-tissue-destroying liquid” (priority 2002, published 2006).

One data set deals with diseased tissue. Nature of the data set: topical application of acids, enzymes and the topical liquid to skin, mucous membranes and diseased tissue. To be noted: for aggressiveness toward the skin and mucous membranes / tissues: topical use while selecting components of the mixture. From the text: The topical liquid or aqueous composition is composed of substances such as nitric acid and enzymes, mucins and ptyalin which are combined to form an aqueous pharmaceutical composition which is applied to the infected tissues and selectively attacks the cells of the diseased tissue or tumour. This composition is applied to the tissues which are to be eliminated, in dabs which are applied using a cotton swab moistened with the topical liquid that destroys the pathogenic tissue. It is applied to the diseased tissue as necessary, until the tissue changes colour and a small clear or pink halo appears round the treated tissue. The site is then washed with clean water. When applied to the mucous membranes, washing after application of the pathogenic-tissue destroying topical liquid is not necessary. […] However, this sometimes depends on the sensitivity of the individual (only individuals who have a tendency to form keloid scars will be left with a slight sign).

The subject of data set [1] is herpes simplex virus type 1. Particulars: 4 mM, cited from earlier work.

In the case of `O=[N+]([O-])O` [Nitric acid], the “aggressiveness toward the skin and mucous membranes / tissues” value in the data set with diseased tissue was “least aggressive”. As to `O=C(O)CC(O)(CC(=O)O)C(=O)O` [citric acid], the “coagulation of the diseased tissue” value with diseased tissue (topical application) was “did not succeed in coagulating the diseased tissue”. `O=C(O)C(O)CO` (stereo not drawn) [glyceric acid]: in data set [1] (normal cells), the “synthesis of glycoproteins in normal cells” value is “slightly affected”. Further, the “production of the virus inhibited” value in data set [1] is listed as 99%. As to `Cl` [hydrochloric acid], the “aggressiveness toward the skin and mucous membranes / tissues” value in the data set on diseased tissue is reported as “too aggressive”. The same measure, in the same setting: with `O=S(=O)(O)O` [sulphuric, sulphuric acid] the entry was “too aggressive”.
